Assay results taken from patent publication US20220288069A1, “INHIBITORS OF TYROSINE KINASE” (BridGene Biosciences, Inc., priority 2019, published 2022).

Experiments:
MV4−11 = assay: Cell viability assay (CellTiter-Glo), MV4-11; assay type: cell-based; settings: Homo sapiens, MV4-11 cells, 72 hr
Method: (§1) Cell viability assay was performed based on the following brief procedures. Cells were plated at the density of 5K/well with volume of […] in 96-well white plate and clear bottom plates. 20 μL of veh. or compound was added at proper concentration to the well. The final volume is 200 μL, with final conc. of DMSO32 0.1%, 11 points, triplicates. The cells were then treated at 37° C. in the TC incubator for 72 hr. Equal volume (200 μL) of CellTiter-Glo reagent (Promega) was added to the well and protect from light at room temperature for 15 min. The chemiluminicent was measured with EnSight (Perkin Elmer). GraphPad Prism non-linear regression, Log[inhibitor] response with four parameters were used to calculate GI50.

KIT = target: T1, KIT (Homo sapiens, UniProt P10721); assay: Caliper mobility shift kinase inhibition assay, KIT; assay type: biochemical; settings: recombinant kinase; enzyme 0.9 nM, ATP 400 μM, incubation 17 hr
T1 construct: purchased BPS 40250
Method: Compounds' inhibition of recombinant kinases (FGR, FLT3, FMS, KIT, or RON) was measured using Caliper mobility shift assay, which is based on the difference in capillary electrophoresis mobility of a fluorescent-tagged peptide as a result of a phosphorylation by the kinase under study. Reactions were started by the addition of various concentrations of a compound (originally in DMSO solution) to a kinase solution in assay buffer followed by addition of a mixture of ATP and a fluorescent-tagged peptide substrate in assay buffer. Concentrations of the enzyme, ATP and the peptide were pre-optimized so that 15% substrate conversion to ensure initial velocity measurements. […]
(§2) Table 2 below summarizes the assay conditions for the characterization of the kinase inhibition properties of the disclosed compounds.

FLT3 = target: T2, FLT3 (Homo sapiens, UniProt P36888); assay: Caliper mobility shift kinase inhibition assay, FLT3; assay type: biochemical; settings: recombinant kinase; enzyme 0.1 nM, ATP 95 μM, incubation 3 hr
T2 construct: purchased ThermoFisher PV3182
T2 sequence (P36888 27-993): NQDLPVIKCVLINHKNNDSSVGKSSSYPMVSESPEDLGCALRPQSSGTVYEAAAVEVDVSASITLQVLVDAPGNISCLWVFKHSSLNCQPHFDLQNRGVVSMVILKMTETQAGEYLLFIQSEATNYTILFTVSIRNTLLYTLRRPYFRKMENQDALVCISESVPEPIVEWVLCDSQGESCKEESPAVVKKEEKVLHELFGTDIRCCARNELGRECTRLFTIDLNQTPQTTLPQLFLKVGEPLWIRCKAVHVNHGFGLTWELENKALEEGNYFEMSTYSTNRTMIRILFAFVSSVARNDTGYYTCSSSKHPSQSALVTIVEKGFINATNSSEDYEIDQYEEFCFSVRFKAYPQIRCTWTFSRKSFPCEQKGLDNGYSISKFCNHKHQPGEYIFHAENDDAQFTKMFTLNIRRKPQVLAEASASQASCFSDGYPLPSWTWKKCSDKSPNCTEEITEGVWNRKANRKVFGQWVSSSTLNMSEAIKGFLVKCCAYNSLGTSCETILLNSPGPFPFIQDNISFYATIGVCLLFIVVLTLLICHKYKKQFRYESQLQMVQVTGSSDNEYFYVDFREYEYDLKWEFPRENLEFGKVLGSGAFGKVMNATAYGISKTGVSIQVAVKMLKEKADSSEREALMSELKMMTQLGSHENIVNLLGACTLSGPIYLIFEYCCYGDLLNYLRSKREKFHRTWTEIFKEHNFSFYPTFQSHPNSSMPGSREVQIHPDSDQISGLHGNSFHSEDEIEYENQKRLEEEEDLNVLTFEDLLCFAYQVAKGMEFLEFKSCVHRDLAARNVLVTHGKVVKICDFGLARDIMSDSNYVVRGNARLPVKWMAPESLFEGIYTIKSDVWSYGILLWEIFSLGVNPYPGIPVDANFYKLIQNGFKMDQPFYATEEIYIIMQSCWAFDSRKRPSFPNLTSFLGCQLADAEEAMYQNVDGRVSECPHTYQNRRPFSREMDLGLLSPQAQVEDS
Method: (§3) Compounds' inhibition of recombinant kinases (FGR, FLT3, FMS, KIT, or RON) was measured using Caliper mobility shift assay, which is based on the difference in capillary electrophoresis mobility of a fluorescent-tagged peptide as a result of a phosphorylation by the kinase under study. Reactions were started by the addition of various concentrations of a compound (originally in DMSO solution) to a kinase solution in assay buffer followed by addition of a mixture of ATP and a fluorescent-tagged peptide substrate in assay buffer. Concentrations of the enzyme, ATP and the peptide were pre-optimized so that 15% substrate conversion to ensure initial velocity measurements. After incubation for 3 hours at room temperature, the kinase reaction was quenched by the addition of a concentrated EDTA solution before analysis on a LabChip EZ Reader II to yield percentage inhibition by comparing to the DMSO control.
as §2

Kasumi−1 = assay: Cell viability assay (CellTiter-Glo), Kasumi-1; assay type: cell-based; settings: Homo sapiens, Kasumi-1 cells, 72 hr
Method: as §1

THP−1 = assay: Cell viability assay (CellTiter-Glo), THP-1; assay type: cell-based; settings: Homo sapiens, THP-1 cells, 72 hr
Method: as §1

RON = target: T3, RON (Homo sapiens, UniProt Q04912); assay: Caliper mobility shift kinase inhibition assay, RON; assay type: biochemical; settings: recombinant kinase; enzyme 0.4 nM, ATP 20 μM, incubation 3 hr
T3 construct: purchased Invitrogen PV4314
Method: as §3, §2

FGR = target: T4, FGR (Homo sapiens, UniProt P09769); assay: Caliper mobility shift kinase inhibition assay, FGR; assay type: biochemical; settings: recombinant kinase; enzyme 0.3 nM, ATP 50 μM, incubation 3 hr
T4 construct: purchased BPS 4022
Method: as §3, §2

FMS = target: T5, FMS (Homo sapiens, UniProt P07333); assay: Caliper mobility shift kinase inhibition assay, FMS; assay type: biochemical; settings: recombinant kinase; enzyme 0.25 nM, ATP 100 μM, incubation 3 hr
T5 construct: purchased Invitrogen PV3249
Method: as §3, §2

T1 sequence (P10721 26-976): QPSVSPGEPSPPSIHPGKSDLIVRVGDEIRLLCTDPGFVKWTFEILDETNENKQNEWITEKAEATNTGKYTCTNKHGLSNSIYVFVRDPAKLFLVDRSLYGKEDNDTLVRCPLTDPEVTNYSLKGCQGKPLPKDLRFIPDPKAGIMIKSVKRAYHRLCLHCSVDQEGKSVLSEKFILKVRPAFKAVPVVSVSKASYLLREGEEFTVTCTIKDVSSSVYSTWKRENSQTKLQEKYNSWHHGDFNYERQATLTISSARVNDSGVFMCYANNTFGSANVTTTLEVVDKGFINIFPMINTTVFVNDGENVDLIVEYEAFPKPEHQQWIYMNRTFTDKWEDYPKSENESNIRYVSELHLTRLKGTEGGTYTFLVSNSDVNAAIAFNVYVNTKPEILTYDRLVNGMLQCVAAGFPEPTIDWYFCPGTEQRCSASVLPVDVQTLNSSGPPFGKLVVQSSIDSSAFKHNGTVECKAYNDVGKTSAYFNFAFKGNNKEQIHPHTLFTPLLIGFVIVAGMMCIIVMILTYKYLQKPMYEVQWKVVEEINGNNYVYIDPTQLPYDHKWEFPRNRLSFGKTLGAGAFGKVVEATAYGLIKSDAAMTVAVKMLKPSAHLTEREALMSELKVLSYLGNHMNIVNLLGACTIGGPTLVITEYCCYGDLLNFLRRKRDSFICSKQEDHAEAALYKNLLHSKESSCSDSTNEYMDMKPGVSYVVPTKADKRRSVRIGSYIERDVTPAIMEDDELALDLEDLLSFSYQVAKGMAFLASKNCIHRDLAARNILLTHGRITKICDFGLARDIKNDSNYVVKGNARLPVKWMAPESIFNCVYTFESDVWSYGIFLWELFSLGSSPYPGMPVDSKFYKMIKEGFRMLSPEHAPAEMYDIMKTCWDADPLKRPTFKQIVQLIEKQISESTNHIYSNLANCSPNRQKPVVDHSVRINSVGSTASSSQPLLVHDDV
T4 sequence (P09769 whole entry): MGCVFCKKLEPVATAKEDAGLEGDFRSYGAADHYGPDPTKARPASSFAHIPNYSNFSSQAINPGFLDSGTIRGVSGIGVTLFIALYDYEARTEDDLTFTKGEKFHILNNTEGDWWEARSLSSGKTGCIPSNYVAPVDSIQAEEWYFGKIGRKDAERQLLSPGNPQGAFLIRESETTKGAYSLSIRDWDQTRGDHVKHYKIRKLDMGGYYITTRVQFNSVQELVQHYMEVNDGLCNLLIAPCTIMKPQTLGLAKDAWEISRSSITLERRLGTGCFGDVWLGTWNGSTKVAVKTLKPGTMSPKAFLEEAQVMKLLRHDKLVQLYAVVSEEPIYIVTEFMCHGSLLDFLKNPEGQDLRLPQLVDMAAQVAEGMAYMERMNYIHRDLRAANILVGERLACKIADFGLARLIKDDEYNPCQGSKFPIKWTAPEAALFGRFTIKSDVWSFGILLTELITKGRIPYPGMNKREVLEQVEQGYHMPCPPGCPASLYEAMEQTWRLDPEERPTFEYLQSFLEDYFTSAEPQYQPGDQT
T3 sequence (Q04912 25-1400): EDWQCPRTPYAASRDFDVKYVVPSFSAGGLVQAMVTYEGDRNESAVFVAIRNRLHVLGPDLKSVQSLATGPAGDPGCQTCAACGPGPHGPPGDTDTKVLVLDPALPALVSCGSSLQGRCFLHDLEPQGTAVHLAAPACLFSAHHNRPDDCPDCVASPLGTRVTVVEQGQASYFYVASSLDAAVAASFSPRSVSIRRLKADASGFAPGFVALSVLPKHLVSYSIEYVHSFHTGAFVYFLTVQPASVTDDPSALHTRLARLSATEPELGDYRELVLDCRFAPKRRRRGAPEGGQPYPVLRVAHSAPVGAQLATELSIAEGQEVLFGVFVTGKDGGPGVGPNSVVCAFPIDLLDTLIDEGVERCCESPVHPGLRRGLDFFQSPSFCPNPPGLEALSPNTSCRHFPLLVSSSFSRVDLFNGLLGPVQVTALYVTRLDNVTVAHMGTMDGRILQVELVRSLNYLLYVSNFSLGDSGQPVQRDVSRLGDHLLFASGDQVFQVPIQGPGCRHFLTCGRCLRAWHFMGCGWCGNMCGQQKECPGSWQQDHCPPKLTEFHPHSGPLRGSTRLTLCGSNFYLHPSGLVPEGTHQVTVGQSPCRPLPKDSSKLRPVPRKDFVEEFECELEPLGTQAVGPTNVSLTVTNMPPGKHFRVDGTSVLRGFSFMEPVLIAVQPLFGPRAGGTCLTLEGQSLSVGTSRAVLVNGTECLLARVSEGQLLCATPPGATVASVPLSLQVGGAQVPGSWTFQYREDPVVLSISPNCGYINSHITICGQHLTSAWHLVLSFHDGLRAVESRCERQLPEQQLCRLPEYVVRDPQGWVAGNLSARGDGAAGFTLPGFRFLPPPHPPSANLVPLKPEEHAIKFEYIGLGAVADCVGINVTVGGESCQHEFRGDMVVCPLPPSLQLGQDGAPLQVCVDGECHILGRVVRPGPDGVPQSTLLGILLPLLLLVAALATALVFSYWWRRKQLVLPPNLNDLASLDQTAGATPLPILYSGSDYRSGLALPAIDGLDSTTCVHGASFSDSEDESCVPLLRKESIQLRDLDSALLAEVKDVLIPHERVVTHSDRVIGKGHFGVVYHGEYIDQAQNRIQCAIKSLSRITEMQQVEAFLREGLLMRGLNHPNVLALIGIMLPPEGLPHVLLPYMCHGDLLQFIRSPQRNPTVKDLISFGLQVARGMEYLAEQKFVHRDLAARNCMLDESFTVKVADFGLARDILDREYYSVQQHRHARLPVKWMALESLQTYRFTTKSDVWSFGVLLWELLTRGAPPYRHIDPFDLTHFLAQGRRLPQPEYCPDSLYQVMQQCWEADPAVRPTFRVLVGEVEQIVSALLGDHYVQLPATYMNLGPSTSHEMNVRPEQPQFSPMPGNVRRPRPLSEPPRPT
T5 sequence (P07333 20-972): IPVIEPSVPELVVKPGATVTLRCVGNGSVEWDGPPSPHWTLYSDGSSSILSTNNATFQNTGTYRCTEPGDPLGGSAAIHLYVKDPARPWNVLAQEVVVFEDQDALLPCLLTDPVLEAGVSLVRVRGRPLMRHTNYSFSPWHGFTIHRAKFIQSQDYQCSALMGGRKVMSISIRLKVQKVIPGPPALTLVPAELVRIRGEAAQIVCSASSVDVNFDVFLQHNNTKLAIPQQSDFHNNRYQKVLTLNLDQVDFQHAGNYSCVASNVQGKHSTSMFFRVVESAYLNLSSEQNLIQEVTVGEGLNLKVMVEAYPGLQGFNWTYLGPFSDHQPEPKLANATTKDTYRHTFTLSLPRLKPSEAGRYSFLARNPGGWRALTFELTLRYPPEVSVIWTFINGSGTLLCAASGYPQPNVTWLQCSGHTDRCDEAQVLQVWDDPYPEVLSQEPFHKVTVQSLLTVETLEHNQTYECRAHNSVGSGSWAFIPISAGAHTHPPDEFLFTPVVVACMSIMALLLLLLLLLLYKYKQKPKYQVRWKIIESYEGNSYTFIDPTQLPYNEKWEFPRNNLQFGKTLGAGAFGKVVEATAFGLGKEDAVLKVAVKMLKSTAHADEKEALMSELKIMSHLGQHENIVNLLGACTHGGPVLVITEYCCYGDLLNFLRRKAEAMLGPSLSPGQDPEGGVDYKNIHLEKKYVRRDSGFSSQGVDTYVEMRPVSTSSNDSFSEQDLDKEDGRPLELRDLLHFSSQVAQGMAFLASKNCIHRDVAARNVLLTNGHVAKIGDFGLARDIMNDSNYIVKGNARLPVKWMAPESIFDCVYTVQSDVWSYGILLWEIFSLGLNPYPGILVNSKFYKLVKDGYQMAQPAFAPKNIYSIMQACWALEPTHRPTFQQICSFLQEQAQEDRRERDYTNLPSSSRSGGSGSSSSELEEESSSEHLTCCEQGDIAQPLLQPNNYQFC

Structure (SMILES) | GI50 (MV4−11) | IC50 (KIT) | IC50 (FLT3) | GI50 (THP−1) | IC50 (RON) | IC50 (FGR) | IC50 (FMS) | GI50 (Kasumi−1)
Cc1cc(Nc2cc(NCCNC(=O)[C@@H]3CCCN3C(=O)/C=C/CN(C)C)nc(Nc3ccc(CC#N)cc3)n2)n[nH]1 [Compound 3] | 0.01 to 0.1 µM | < 0.01 µM | < 0.01 µM | ≥ 1 µM | – | – | – | ≥ 1 µM
C=CC(=O)N(C)[C@@H](C)C(=O)NCCNc1cc(Nc2ncc(-c3ccccc3)s2)nc(C)n1 [Compound 9, (2S)—N-[2-[[2-methyl-6-[(5-phenylthiazol-2-yl)amino]pyrimidin-4-yl]amino]ethyl]-2-[methyl(prop-2-enoyl)amino]propanamide] | < 0.01 µM | < 0.01 µM | < 0.01 µM | ≥ 1 µM | – | – | – | < 0.01 µM
Cc1cc(Nc2cc(NCCNC(=O)[C@H](C)N(C)C(=O)/C=C/CN(C)C)nc(Nc3ccc(CC#N)cc3)n2)n[nH]1 [Compound 1] | < 0.01 µM | < 0.01 µM | < 0.01 µM | ≥ 1 µM | 0.1 to 1 µM | 0.01 to 0.1 µM | < 0.01 µM | 0.1 to 1 µM
C=CC(=O)N(C)[C@@H](C)C(=O)NCCOc1cc(C)nc(Nc2ncc(-c3ccccc3)s2)c1 [Compound 12, (2S)—N-[2-[[2-methyl-6-[(5-phenylthiazol-2-yl)amino]-4-pyridyl]oxy]ethyl]-2-[methyl(prop-2-enoyl)amino]propanamide] | < 0.01 µM | < 0.01 µM | < 0.01 µM | ≥ 1 µM | – | – | – | < 0.01 µM
CCC(=O)N(C)[C@@H](C)C(=O)NCCNc1cc(Nc2ncc(-c3ccccc3)s2)nc(C)n1 [Compound 10, (2S)—N-[2-[[2-methyl-6-[(5-phenylthiazol-2-yl)amino]pyrimidin-4-yl]amino]ethyl]-2-[methyl(propanoyl)amino]propanamide] | < 0.01 µM | 0.01 to 0.1 µM | 0.01 to 0.1 µM | ≥ 1 µM | – | – | – | 0.01 to 0.1 µM
CC#CC(=O)N(C)[C@@H](C)C(=O)NCCNc1cc(Nc2cc(C3CCC3)[nH]n2)nc(Nc2ccc(CC#N)cc2)n1 [Compound 5, N-[(1S)-2-[2-[[2-[4-(cyanomethyl)anilino]-6-[(5-cyclobutyl-1H-pyrazol-3-yl)amino]pyrimidin-4-yl]amino]ethylamino]-1-methyl-2-oxo-ethyl]-N-methyl-but-2-ynamide] | < 0.01 µM | 0.01 to 0.1 µM | < 0.01 µM | ≥ 1 µM | – | – | – | ≥ 1 µM
C=CC(=O)N(C)[C@@H](C)C(=O)NCCNc1cc(Nc2cc(C3CCC3)[nH]n2)nc(Nc2ccc(CC#N)cc2)n1 [Compound 4, (2S)—N-[2-[[2-[4-(cyanomethyl)anilino]-6-[(5-cyclobutyl-1H-pyrazol-3-yl)amino]pyrimidin-4-yl]amino]ethyl]-2-[methyl(prop-2-enoyl)amino]propanamide] | < 0.01 µM | 0.01 to 0.1 µM | < 0.01 µM | 0.1 to 1 µM | – | – | – | 0.1 to 1 µM
C=CC(=O)N(C)[C@@H](C)C(=O)NCCOc1cc(Nc2ncc(-c3ccccc3)s2)nc(C)n1 [Compound 13, (2S)—N-[2-[2-methyl-6-[(5-phenylthiazol-2-yl)amino]pyrimidin-4-yl]oxyethyl]-2-[methyl(prop-2-enoyl)amino]propanamide] | < 0.01 µM | < 0.01 µM | < 0.01 µM | ≥ 1 µM | – | – | – | < 0.01 µM

Continued, in another order:

GI50 (MV4−11) | IC50 (KIT) | IC50 (FLT3) | GI50 (THP−1) | IC50 (RON) | IC50 (FGR) | IC50 (FMS) | Structure (SMILES) | GI50 (Kasumi−1)
< 0.01 µM | < 0.01 µM | < 0.01 µM | ≥ 1 µM | – | – | – | C=CC(=O)N(C)[C@@H](C)C(=O)NCCNc1cc(Nc2ncc(-c3ccncc3)s2)nc(C)n1 [Compound 17, (2S)-2-[methyl(prop-2-enoyl)amino]-N-[2-[[2-methyl-6-[[5-(4-pyridyl)thiazol-2-yl]amino]pyrimidin-4-yl]amino]ethyl]propanamide] | < 0.01 µM
< 0.01 µM | < 0.01 µM | < 0.01 µM | ≥ 1 µM | – | – | – | CC#CC(=O)N(C)[C@@H](C)C(=O)NCCNc1cc(Nc2ncc(-c3ccncc3)s2)nc(C)n1 [Compound 18, N-methyl-N-[(1S)-1-methyl-2-[2-[[2-methyl-6-[[5-(4-pyridyl)thiazol-2-yl]amino]pyrimidin-4-yl]amino]ethylamino]-2-oxo-ethyl]but-2-ynamide] | < 0.01 µM
< 0.01 µM | < 0.01 µM | < 0.01 µM | ≥ 1 µM | 0.1 to 1 µM | 0.1 to 1 µM | < 0.01 µM | Cc1c(C(=O)NCCNC(=O)[C@H](C)N(C)C(=O)/C=C/CN(C)C)c[nH]c1/C=C1\C(=O)Nc2ccc(F)cc21 [Compound 26, N-(2-((S)-2-((E)-4-(dimethylamino)-N-methylbut-2-enamido)propanamido)ethyl)-5-((Z)-(5-fluoro-2-oxoindolin-3-ylidene)methyl)-4-methyl-1H-pyrrole-3-carboxamide] | –
